Test results published in the supplement of paper PMC10307832.

What was measured:
Experiment in all cases: relative viability (nuclei count vs DMSO), 5 days (fraction); higher = more cells survive
QS11 + Pemetrexed = compound: C1CC2=C(C1)C=C(C=C2)OC3=NC(=C4C(=N3)N(C=N4)CC5=CC=C(C=C5)C6=CC=CC=C6)N[C@@H](CC7=CC=CC=C7)CO [QS11] + Nc1nc2[nH]cc(CCc3ccc(C(=O)N[C@@H](CCC(=O)O)C(=O)O)cc3)c2c(=O)[nH]1 [Pemetrexed] (partner 0.2 µM)
Summary of the method: (§1)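 Lung cancer cell lines, seeded in 1536-well plates, were treated the following day by pin tool with a single drug or with five library-drug doses (not always all listed) in √10 steps on top of a fixed anchor-drug dose. Cells were fixed and nuclei stained in one step after 5 days, and nuclei were counted. Relative viability is the nuclei count for treated wells divided by that for vehicle wells, reported as medians of duplicate plates.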

AZ628 + AZD7762 = compound: CC1=C(C=C(C=C1)NC(=O)C2=CC(=CC=C2)C(C)(C)C#N)NC3=CC4=C(C=C3)N=CN(C4=O)C [AZ628] + NC(=O)Nc1cc(-c2cccc(F)c2)sc1C(=O)N[C@H]1CCCNC1 [AZD7762] (partner 0.2 µM)
Summary of the method: as §1

QS11 + Trametinib = compound: C1CC2=C(C1)C=C(C=C2)OC3=NC(=C4C(=N3)N(C=N4)CC5=CC=C(C=C5)C6=CC=CC=C6)N[C@@H](CC7=CC=CC=C7)CO [QS11] + CC(=O)Nc1cccc(-n2c(=O)n(C3CC3)c(=O)c3c(Nc4ccc(I)cc4F)n(C)c(=O)c(C)c32)c1 [Trametinib] (partner 0.02 µM)
Summary of the method: as §1

AZ628 + Luminespib = compound: CC1=C(C=C(C=C1)NC(=O)C2=CC(=CC=C2)C(C)(C)C#N)NC3=CC4=C(C=C3)N=CN(C4=O)C [AZ628] + CCNC(=O)c1noc(-c2cc(C(C)C)c(O)cc2O)c1-c1ccc(CN2CCOCC2)cc1 [Luminespib] (partner 0.01 µM)
Summary of the method: as §1

Cell Line	relative viability (QS11 + Pemetrexed; first compound 0.08 µM)	relative viability (QS11 + Pemetrexed; first compound 0.253 µM)	relative viability (QS11 + Pemetrexed; first compound 0.8 µM)	relative viability (QS11 + Pemetrexed; first compound 2.53 µM)	relative viability (QS11 + Pemetrexed; first compound 8 µM)	relative viability (AZ628 + AZD7762; first compound 0.08 µM)	relative viability (AZ628 + AZD7762; first compound 0.253 µM)	relative viability (AZ628 + AZD7762; first compound 0.8 µM)	relative viability (AZ628 + AZD7762; first compound 2.53 µM)	relative viability (AZ628 + AZD7762; first compound 8 µM)	relative viability (QS11 + Trametinib; first compound 0.08 µM)	relative viability (QS11 + Trametinib; first compound 0.253 µM)	relative viability (QS11 + Trametinib; first compound 0.8 µM)	relative viability (QS11 + Trametinib; first compound 2.53 µM)	relative viability (QS11 + Trametinib; first compound 8 µM)	relative viability (AZ628 + Luminespib; first compound 0.08 µM)	relative viability (AZ628 + Luminespib; first compound 0.253 µM)	relative viability (AZ628 + Luminespib; first compound 0.8 µM)	relative viability (AZ628 + Luminespib; first compound 2.53 µM)	relative viability (AZ628 + Luminespib; first compound 8 µM)
201T	0.357	0.348	0.328	0.358	0.267	0.523	0.541	0.57	0.462	0.45	0.729	0.739	0.566	0.704	0.61	1.07	1.02	1.14	1.05	1.14
ABC-1	–	–	–	–	–	0.761	0.786	0.768	0.865	0.745	–	–	–	–	–	0.717	0.699	0.929	0.838	0.536
COR-L23	0.196	0.179	0.206	0.198	0.199	–	–	–	–	–	0.577	0.605	0.585	0.551	0.598	0.687	0.737	0.709	0.655	0.404
COR-L 105	1.14	0.96	1.04	0.955	0.942	–	–	–	–	–	0.433	0.424	0.414	0.415	0.445	0.828	0.591	0.761	0.86	0.635
HCC-78	0.918	0.935	0.894	0.936	0.857	0.808	0.663	0.644	0.85	0.787	0.771	0.765	0.643	0.883	0.781	–	–	–	–	–
HCC-366	0.163	0.139	–	0.175	0.136	0.248	0.193	0.235	0.207	0.149	0.348	0.346	–	0.218	0.116	–	–	–	–	–
NCI-H520	0.791	0.871	0.863	0.783	0.488	–	–	–	–	–	0.676	0.789	0.83	0.65	0.755	0.21	0.219	0.209	0.219	0.203
NCI-H661	1.03	0.911	0.794	0.953	0.857	–	–	–	–	–	0.624	0.594	0.473	0.46	0.477	1.03	0.941	0.912	0.961	0.731
NCI-H727	–	–	–	–	–	0.504	–	–	0.369	0.333	0.416	0.404	0.38	0.406	0.396	0.343	0.337	0.228	0.277	0.203
NCI-H1563	0.806	0.838	0.722	0.881	0.886	–	–	–	–	–	–	–	–	–	–	0.531	0.524	0.519	0.56	0.515
NCI-H1623	–	–	–	–	–	–	–	–	–	–	–	–	–	–	–	0.493	0.432	0.393	0.358	0.395
NCI-H1648	0.762	0.713	0.637	0.748	0.875	0.871	0.579	0.524	0.494	0.587	0.603	0.535	0.423	0.557	0.486	–	–	–	–	–
NCI-H1650	0.472	0.33	0.321	0.34	0.366	–	–	–	–	–	0.459	0.667	0.366	0.751	0.552	0.206	0.18	0.201	0.203	0.206
NCI-H1703	–	–	–	–	–	0.118	0.124	0.134	0.139	0.0724	–	–	–	–	–	–	–	–	–	–
NCI-H2009	1.08	1.06	1.01	0.978	0.985	–	–	–	–	–	0.242	0.32	0.24	0.279	0.256	0.967	0.957	0.894	0.966	0.38
NCI-H2023	0.293	0.276	0.241	0.197	0.194	–	–	–	–	–	0.616	0.57	0.661	0.68	0.597	0.818	0.76	0.666	0.65	0.653
NCI-H2228	0.342	0.337	0.324	0.374	0.372	–	–	–	–	–	0.483	0.392	0.507	0.788	0.547	0.119	0.133	0.18	0.195	0.14
SK-LU-1	0.993	1.07	0.913	0.835	0.781	–	–	–	–	–	0.443	0.508	0.441	0.522	0.55	–	0.181	0.231	0.211	0.169
SK-MES-1	1.08	0.94	0.832	0.977	0.863	–	–	–	–	–	0.519	0.557	0.451	0.507	0.527	0.848	0.72	0.574	0.598	0.386
SW 1573	0.811	0.926	0.792	0.418	0.539	–	–	–	–	–	0.542	0.553	0.519	0.41	0.365	0.315	0.258	0.16	0.189	0.171
UMC-11	0.87	0.89	0.716	0.97	0.993	–	–	–	–	–	0.603	0.548	0.618	0.775	0.898	1.16	0.999	0.973	0.98	1.17
